# Data: ChEMBL document CHEMBL3991601, “The target landscape of clinical kinase drugs” (Science, 2017)
# Active and inactive are the calls of the source.
# Key:
# [1] = molecular target: T1, Glycogen phosphorylase, brain form (Homo sapiens, UniProt P11216)
# T1 sequence (P11216 whole entry): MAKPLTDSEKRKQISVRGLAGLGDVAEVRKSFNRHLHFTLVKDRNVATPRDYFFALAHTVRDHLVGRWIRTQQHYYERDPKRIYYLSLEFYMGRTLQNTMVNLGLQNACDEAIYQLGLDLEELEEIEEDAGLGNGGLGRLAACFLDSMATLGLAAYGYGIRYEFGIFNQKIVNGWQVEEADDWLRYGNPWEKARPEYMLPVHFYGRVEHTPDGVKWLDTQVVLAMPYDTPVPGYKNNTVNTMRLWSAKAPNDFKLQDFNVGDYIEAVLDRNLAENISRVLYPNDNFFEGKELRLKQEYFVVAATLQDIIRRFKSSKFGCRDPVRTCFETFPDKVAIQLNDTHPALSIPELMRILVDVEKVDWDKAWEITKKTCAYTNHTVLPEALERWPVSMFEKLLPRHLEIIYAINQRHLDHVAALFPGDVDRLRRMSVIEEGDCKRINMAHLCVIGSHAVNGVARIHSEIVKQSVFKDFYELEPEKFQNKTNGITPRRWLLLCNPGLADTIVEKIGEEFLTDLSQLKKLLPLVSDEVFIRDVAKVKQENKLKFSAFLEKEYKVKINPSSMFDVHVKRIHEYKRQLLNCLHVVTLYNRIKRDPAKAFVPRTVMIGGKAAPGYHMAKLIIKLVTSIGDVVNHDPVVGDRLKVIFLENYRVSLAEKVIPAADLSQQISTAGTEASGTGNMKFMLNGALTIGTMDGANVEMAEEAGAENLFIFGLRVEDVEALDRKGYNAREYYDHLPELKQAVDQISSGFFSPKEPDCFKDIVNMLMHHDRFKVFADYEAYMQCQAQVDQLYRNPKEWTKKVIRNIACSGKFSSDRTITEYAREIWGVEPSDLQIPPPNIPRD
# [2] = molecular target: T2, Dynamin-like GTPase OPA1, mitochondrial (Homo sapiens, UniProt O60313)
# T2 sequence (O60313 whole entry): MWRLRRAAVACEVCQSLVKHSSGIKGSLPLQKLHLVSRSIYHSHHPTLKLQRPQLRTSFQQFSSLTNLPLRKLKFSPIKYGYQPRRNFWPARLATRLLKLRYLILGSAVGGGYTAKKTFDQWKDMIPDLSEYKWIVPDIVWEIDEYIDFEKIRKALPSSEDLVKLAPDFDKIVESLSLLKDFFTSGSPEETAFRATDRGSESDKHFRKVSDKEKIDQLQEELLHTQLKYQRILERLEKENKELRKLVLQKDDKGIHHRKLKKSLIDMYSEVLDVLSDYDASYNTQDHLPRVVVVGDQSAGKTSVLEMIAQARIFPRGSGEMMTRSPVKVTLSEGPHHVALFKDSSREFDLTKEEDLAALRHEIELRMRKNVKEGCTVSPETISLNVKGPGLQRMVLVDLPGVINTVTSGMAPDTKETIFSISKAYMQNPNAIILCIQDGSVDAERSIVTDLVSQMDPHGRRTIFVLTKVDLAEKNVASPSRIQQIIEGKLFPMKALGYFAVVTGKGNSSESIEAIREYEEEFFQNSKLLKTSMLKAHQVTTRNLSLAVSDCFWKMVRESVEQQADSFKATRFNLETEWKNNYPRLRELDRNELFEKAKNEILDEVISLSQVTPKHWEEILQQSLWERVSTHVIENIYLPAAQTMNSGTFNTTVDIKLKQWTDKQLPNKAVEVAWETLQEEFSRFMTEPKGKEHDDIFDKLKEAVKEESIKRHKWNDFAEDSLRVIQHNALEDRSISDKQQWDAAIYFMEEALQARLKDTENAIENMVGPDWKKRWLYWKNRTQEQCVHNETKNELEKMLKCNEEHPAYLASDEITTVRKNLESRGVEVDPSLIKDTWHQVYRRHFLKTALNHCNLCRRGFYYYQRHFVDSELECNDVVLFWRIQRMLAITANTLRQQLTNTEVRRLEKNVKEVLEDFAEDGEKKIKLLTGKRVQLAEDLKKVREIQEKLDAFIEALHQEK
# [3] = molecular target: T3, Very long-chain specific acyl-CoA dehydrogenase, mitochondrial (Homo sapiens, UniProt P49748)
# T3 sequence (P49748 whole entry): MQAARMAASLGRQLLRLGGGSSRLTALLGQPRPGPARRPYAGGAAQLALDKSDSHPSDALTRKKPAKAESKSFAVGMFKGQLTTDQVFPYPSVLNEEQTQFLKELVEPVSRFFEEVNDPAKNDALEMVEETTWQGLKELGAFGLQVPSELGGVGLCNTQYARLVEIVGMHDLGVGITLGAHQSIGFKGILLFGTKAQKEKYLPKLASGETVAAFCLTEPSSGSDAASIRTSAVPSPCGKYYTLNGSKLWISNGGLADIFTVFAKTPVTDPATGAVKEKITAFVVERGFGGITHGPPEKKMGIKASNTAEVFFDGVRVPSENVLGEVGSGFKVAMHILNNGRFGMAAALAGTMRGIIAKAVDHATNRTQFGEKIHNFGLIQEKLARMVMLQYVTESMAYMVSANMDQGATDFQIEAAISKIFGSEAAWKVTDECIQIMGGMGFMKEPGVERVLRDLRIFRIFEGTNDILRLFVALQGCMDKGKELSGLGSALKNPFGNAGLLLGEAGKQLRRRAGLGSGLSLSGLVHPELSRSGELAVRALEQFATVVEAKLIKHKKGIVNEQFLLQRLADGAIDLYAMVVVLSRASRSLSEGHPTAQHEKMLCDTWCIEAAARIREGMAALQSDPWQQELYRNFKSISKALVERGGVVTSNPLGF
# [4] = molecular target: cAMP-dependent protein kinase type II-alpha regulatory subunit (Homo sapiens, UniProt P13861)
# cAMP-dependent protein kinase type II-alpha regulatory subunit, sequence (P13861 whole entry): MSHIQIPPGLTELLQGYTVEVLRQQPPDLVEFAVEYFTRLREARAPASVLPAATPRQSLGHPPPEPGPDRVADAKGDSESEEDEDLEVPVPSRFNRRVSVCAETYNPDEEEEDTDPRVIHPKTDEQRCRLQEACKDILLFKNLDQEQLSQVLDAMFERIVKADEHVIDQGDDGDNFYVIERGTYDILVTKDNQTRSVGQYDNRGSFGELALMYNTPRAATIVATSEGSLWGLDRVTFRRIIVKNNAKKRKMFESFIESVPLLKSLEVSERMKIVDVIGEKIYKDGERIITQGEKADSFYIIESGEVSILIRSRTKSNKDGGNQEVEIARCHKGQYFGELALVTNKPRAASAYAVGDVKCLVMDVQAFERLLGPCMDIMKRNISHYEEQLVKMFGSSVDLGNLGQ
# [5] = molecular target: Mitogen-activated protein kinase 7 (Homo sapiens, UniProt Q13164)
# Mitogen-activated protein kinase 7, sequence (Q13164 whole entry): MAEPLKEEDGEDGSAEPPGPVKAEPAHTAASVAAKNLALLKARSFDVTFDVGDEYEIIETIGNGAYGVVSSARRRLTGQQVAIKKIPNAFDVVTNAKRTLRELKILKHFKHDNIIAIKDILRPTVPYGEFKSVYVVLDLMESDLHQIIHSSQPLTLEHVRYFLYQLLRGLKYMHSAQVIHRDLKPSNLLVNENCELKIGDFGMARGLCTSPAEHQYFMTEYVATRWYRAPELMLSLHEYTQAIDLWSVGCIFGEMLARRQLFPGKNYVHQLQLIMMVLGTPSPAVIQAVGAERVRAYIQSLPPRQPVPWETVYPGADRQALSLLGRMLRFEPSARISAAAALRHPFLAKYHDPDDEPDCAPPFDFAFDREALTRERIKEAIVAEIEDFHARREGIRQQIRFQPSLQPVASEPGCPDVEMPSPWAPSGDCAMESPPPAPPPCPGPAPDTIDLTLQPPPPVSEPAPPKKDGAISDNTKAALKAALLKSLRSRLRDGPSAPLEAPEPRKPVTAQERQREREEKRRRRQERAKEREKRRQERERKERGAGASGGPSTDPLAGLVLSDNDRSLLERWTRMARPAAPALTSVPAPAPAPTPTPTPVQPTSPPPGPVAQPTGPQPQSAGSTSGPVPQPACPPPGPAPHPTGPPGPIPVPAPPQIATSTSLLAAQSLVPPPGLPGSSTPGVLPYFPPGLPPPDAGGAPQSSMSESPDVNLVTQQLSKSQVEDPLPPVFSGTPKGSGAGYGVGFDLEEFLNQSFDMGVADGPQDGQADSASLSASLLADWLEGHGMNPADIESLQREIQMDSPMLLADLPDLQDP
# [6] = molecular target: Ribosomal protein S6 kinase alpha-1 (Homo sapiens, UniProt Q15418)
# Ribosomal protein S6 kinase alpha-1, sequence (Q15418 whole entry): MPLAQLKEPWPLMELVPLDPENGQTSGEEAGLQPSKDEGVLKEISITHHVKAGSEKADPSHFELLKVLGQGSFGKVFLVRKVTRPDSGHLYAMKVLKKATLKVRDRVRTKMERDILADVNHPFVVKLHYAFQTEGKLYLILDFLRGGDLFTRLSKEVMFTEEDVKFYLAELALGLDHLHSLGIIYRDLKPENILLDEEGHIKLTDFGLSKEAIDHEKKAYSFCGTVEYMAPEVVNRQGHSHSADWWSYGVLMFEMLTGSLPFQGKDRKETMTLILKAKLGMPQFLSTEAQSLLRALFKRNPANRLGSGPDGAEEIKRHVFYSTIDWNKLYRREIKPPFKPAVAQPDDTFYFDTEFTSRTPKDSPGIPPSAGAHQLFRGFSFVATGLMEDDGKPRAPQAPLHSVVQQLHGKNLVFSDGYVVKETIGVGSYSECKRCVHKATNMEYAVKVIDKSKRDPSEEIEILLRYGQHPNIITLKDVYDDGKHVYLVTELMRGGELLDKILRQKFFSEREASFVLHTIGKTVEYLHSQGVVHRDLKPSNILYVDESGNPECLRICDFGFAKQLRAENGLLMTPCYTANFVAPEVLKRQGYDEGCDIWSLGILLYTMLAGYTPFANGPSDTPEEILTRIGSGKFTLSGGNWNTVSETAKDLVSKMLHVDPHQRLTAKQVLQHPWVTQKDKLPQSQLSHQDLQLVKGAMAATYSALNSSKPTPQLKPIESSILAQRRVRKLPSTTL
# [7] = molecular target: Cyclin-dependent kinase 2 (Homo sapiens, UniProt P24941)
# [8] = molecular target: Structural maintenance of chromosomes protein 2 (Homo sapiens, UniProt O95347)
# Structural maintenance of chromosomes protein 2, sequence (O95347 whole entry): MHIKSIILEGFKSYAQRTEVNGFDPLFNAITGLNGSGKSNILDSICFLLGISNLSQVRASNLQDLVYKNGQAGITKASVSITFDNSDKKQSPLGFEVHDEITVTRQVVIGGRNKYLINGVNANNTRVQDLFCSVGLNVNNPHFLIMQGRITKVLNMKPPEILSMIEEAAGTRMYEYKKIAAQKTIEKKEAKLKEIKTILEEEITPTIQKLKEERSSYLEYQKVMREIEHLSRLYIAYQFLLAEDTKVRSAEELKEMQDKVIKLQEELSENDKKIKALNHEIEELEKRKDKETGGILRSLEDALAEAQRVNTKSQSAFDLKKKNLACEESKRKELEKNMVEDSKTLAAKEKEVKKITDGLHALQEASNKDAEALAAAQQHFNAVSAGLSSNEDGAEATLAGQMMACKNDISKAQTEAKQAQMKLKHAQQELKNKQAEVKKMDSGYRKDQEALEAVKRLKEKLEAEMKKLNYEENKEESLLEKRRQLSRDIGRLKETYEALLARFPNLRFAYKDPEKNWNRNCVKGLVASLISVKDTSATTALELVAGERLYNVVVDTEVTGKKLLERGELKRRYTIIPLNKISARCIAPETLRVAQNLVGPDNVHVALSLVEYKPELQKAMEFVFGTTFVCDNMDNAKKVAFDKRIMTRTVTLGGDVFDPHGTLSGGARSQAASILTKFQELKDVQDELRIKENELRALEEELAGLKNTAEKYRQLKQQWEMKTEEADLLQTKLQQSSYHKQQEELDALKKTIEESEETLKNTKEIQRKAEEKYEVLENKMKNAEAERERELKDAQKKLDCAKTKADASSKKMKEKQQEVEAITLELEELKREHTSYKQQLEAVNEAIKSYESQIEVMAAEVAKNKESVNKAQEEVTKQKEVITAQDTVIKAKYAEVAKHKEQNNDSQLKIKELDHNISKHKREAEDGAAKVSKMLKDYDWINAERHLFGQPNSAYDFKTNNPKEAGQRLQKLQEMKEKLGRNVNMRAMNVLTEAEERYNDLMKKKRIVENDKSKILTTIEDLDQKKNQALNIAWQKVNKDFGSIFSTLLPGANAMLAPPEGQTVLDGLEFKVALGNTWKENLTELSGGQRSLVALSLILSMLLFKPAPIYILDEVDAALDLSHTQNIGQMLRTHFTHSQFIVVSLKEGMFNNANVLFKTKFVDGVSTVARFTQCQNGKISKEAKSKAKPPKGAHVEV
# [9] = molecular target: DnaJ homolog subfamily A member 1 (Homo sapiens, UniProt P31689)
# DnaJ homolog subfamily A member 1, sequence (P31689 whole entry): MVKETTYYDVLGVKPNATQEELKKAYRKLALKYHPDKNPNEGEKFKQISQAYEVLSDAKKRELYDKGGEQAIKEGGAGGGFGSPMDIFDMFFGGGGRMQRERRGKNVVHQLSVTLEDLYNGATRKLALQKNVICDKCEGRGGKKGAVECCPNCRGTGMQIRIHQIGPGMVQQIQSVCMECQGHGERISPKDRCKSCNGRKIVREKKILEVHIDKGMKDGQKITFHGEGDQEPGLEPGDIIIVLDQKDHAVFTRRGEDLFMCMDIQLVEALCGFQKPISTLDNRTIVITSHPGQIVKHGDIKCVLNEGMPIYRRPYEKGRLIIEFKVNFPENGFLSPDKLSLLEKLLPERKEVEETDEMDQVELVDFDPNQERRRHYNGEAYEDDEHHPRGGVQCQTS
# [10] = molecular target: Inosine-5'-monophosphate dehydrogenase 2 (Homo sapiens, UniProt P12268)
# Further: in the data inactive means no Kd found up to 30 µM.
Compound,Kd [1],Kd [2],Kd [3],Kd [4],Kd [5],Kd [6],Kd [7],Kd [8],Kd [9],Kd [10]
O=C(O)c1ccc2c(c1)nc(Nc1cccc(Cl)c1)c1ccncc12 [SILMITASERTIB],> 30 µM (inactive),> 30 µM (inactive),> 30 µM (inactive),> 30 µM (inactive),> 30 µM (inactive),5.92 µM (active),1.69 µM (active),> 30 µM (inactive),> 30 µM (inactive),> 30 µM (inactive)
Cn1c(=O)n(-c2ccc(C(C)(C)C#N)cc2)c2c3cc(-c4cnc5ccccc5c4)ccc3ncc21 [DACTOLISIB],> 30 µM (inactive),> 30 µM (inactive),> 30 µM (inactive),> 30 µM (inactive),> 30 µM (inactive),> 30 µM (inactive),> 30 µM (inactive),> 30 µM (inactive),> 30 µM (inactive),> 30 µM (inactive)
S=C(NCc1ccc2c(c1)OCO2)N1CCN(c2ncnc3c2oc2ccccc23)CC1 [AMUVATINIB],> 30 µM (inactive),> 30 µM (inactive),> 30 µM (inactive),> 30 µM (inactive),> 30 µM (inactive),> 30 µM (inactive),> 30 µM (inactive),> 30 µM (inactive),> 30 µM (inactive),> 30 µM (inactive)
CC1(COc2ccc3c(c2)ncn3-c2ccc3cccc(N4CCC(N)CC4)c3n2)COC1 [CRENOLANIB],> 30 µM (inactive),> 30 µM (inactive),> 30 µM (inactive),> 30 µM (inactive),> 30 µM (inactive),> 30 µM (inactive),0.128 µM (active),> 30 µM (inactive),> 30 µM (inactive),> 30 µM (inactive)
CNC(=O)c1cc(COc2nnc(Nc3ccc(Cl)cc3)c3ccoc23)ccn1 [TELATINIB],> 30 µM (inactive),> 30 µM (inactive),> 30 µM (inactive),> 30 µM (inactive),> 30 µM (inactive),> 30 µM (inactive),> 30 µM (inactive),> 30 µM (inactive),> 30 µM (inactive),> 30 µM (inactive)
COc1cc(F)c(F)c(Nc2ccc(I)cc2F)c1NS(=O)(=O)C1(C[C@H](O)CO)CC1 [REFAMETINIB],> 30 µM (inactive),> 30 µM (inactive),> 30 µM (inactive),> 30 µM (inactive),> 30 µM (inactive),> 30 µM (inactive),> 30 µM (inactive),> 30 µM (inactive),> 30 µM (inactive),> 30 µM (inactive)
COc1cccc2cc(-c3nc([C@H]4CC[C@H](C(=O)O)CC4)n4ncnc(N)c34)[nH]c12 [OSI-027],> 30 µM (inactive),> 30 µM (inactive),> 30 µM (inactive),> 30 µM (inactive),> 30 µM (inactive),> 30 µM (inactive),> 30 µM (inactive),> 30 µM (inactive),> 30 µM (inactive),> 30 µM (inactive)
Cc1ccc(C(=O)Nc2ccc(Oc3cc4cnn(C)c4cc3-c3cn[nH]c3)c(F)c2)c(=O)n1-c1ccc(F)cc1 [MERESTINIB],> 30 µM (inactive),> 30 µM (inactive),> 30 µM (inactive),> 30 µM (inactive),> 30 µM (inactive),> 30 µM (inactive),> 30 µM (inactive),> 30 µM (inactive),> 30 µM (inactive),> 30 µM (inactive)
CNC(=O)c1cccc(-c2ccc3c(N4CCOC[C@@H]4C)nc(N4CCOC[C@@H]4C)nc3n2)c1 [VISTUSERTIB],> 30 µM (inactive),> 30 µM (inactive),> 30 µM (inactive),> 30 µM (inactive),> 30 µM (inactive),> 30 µM (inactive),> 30 µM (inactive),> 30 µM (inactive),> 30 µM (inactive),> 30 µM (inactive)
C=CC(=O)Nc1cc(Nc2nccc(-c3cn(C)c4ccccc34)n2)c(OC)cc1N(C)CCN(C)C [OSIMERTINIB],> 30 µM (inactive),> 30 µM (inactive),> 30 µM (inactive),> 30 µM (inactive),> 30 µM (inactive),> 30 µM (inactive),> 30 µM (inactive),> 30 µM (inactive),> 30 µM (inactive),> 30 µM (inactive)
COc1cc(Nc2ncc(F)c(Nc3ccc4c(n3)N(COP(=O)(O)O)C(=O)C(C)(C)O4)n2)cc(OC)c1OC [FOSTAMATINIB],> 30 µM (inactive),> 30 µM (inactive),> 30 µM (inactive),> 30 µM (inactive),> 30 µM (inactive),> 30 µM (inactive),> 30 µM (inactive),> 30 µM (inactive),> 30 µM (inactive),> 30 µM (inactive)
COc1ccc2c(OCc3nnc4ccc(-c5ccccc5)nn34)ccnc2c1 [AMG-208],> 30 µM (inactive),> 30 µM (inactive),> 30 µM (inactive),> 30 µM (inactive),> 30 µM (inactive),> 30 µM (inactive),> 30 µM (inactive),> 30 µM (inactive),> 30 µM (inactive),> 30 µM (inactive)
C=CCn1c(=O)c2cnc(Nc3ccc(N4CCN(C)CC4)cc3)nc2n1-c1cccc(C(C)(C)O)n1 [ADAVOSERTIB],> 30 µM (inactive),> 30 µM (inactive),> 30 µM (inactive),> 30 µM (inactive),> 30 µM (inactive),> 30 µM (inactive),> 30 µM (inactive),> 30 µM (inactive),> 30 µM (inactive),> 30 µM (inactive)
Cc1c(Cn2c(C)nc3c(C(=O)O)cc(N4CCOCC4)cc32)cccc1C(F)(F)F [GSK-2636771],> 30 µM (inactive),> 30 µM (inactive),> 30 µM (inactive),> 30 µM (inactive),> 30 µM (inactive),> 30 µM (inactive),> 30 µM (inactive),> 30 µM (inactive),> 30 µM (inactive),> 30 µM (inactive)
